Source: patent US20100210649A1, “PYRIDAZINONES AND FURAN-CONTAINING COMPOUNDS” (Sloan-Kettering Institute for Cancer Research, priority 2006, published 2010)
Values joined by “and” are separate entries in the source; they are usually repeats but may differ in a detail not shown here. Identical values can stand only once. Like-named read-outs stand apart in the source and are kept apart here.

Assays:
[1] = tested on: H1975; assay: Non Small Cell Lung Cancer proliferation assay (Alamar Blue reduction), H1975; type: cell-based, human; details: for inhibition at 10 µM: NCI-H1975, primary screening; for inhibition at 10 µM / CONFIRMATION [%] 1975: 10 μM compound in 1% DMSO (v/v); for CONFIRMATION [%] 1975: percentage inhibition
Procedure, shortened: (§1)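 Viability after 48 hours of drug exposure at 37° C is scored by Alamar Blue reduction over a subsequent 48 hours, read at 530/590 nm. DMSO-only wells (1% final) define the high control.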

[2] = tested on: H2030; assay: Non Small Cell Lung Cancer proliferation assay (Alamar Blue reduction), H2030; type: cell-based, human; details: for inhibition at 10 µM: NCI-H2030, primary screening; for inhibition at 10 µM / CONFIRMATION [%] 2030: 10 μM compound in 1% DMSO (v/v); for CONFIRMATION [%] 2030: percentage inhibition
Procedure, shortened: as §1

[3] = tested on: H358; assay: Non Small Cell Lung Cancer proliferation assay (Alamar Blue reduction), H358; type: cell-based; details: Homo sapiens
Method: These cells have a doubling time of 1-2 days. All cell types are adherent and grow in colonies. The cells should be kept at a density between 50,000 cells/mL -500,000 cells/mL to provide for optimum growth and adequate nutrition. The cell line should be maintained at 37° C. in a humidified atmosphere with 5% CO2 in a sterile cell culture incubator.
Non Small Cell Lung Cancer Proliferation Assay.
(§2) High Controls for this assay are made by treating Non Small Cell Lung Cancer cells with 5 ul of 10% DMSO. [Final concentration in this assay is 1% DMSO].
Important Note: All compounds for testing in this assay should be done at the final concentration of 1% DMSO.
(§3) After addition, the cells are placed in cell culture incubator at 37° C. for 48 hours for complete treatment.
After drug treatment, cytotoxicity is measured by Alamar Blue reduction.
(§4) The cells are incubated for 48 hours at 37° C. to complete the Alamar Blue reduction.
(§5) The final step in the assay is to measure the amount of Alamar Blue reduction. […] The Alamar Blue fluorescence is measured at an excitation of 530 nm and emission of 590 nm.
For the NSCLC project, the cell based assay was screened against a small molecule library of approximately 200,000 compounds. The compound library is stored in our automated robotic freezer (Biophile) at −20° C. in 100% DMSO. Compound freeze and thaw cycles are kept to a minimum. […] This assay was performed on a fully automated linear track robotic platform (CRS F3 Robot System, Thermo Electron Corp., Ontario, Canada) utilizing several integrated peripherals for plate handling, liquid dispensing, and readout detection. […] The microplates are then placed at 37° C. for 48 hours to complete treatment of cells with compounds. Next, 5 ul of alamar blue was added using a liquid dispenser (Flexprop Precision Dispenser, Perkin Elmer, Mass., USA) and incubated for 48 hours at 37° C. The alamar blue prompt fluorescence was measured on Victor V (Victor^3 V, Perkin Elmer, Mass., USA) and output data files were loaded into ORIS (Oncology Research Informatics System, MSKCC, NY, USA), a screening data acquisition and analysis platform.
(§6) The dose response studies were done with the following standard procedure. First, the cells were counted and dispensed at 250 cells/well into 384-well microplates with compound. The cells were incubated for 48 hours at 37 C to complete treatment, and then alamar blue was added for an additional 48 hours. Finally, alamar blue reduction was measured and the data was loaded into ORIS, our data screening acquisition platform.

[4] = tested on: H1118; assay: Non Small Cell Lung Cancer proliferation assay (Alamar Blue reduction), H1118; type: cell-based
Method: Non Small Cell Lung Cancer Proliferation Assay. To perform the assay, the Non Small Cell Lung Cancer lines are diluted in media and plated into 384 well microplates at a final density of 250 cells in […]. To ensure consistency and minimal pipetting error, the cells are plated using the Multidrop 384 with the following settings: Rocker Switch set at 384, Volume 45 and Column 24.
Low Controls for this assay are made by treating Non Small Cell Lung Cancer cells with 5 ul of staurosporine at 250 uM in 10% DMSO and 1% SDS. [Final concentration in this assay is 25 uM staurosporine in 1% DMSO and 0.1% SDS.]
as §2
The remaining wells of the 384 microplate may be treated with different compounds depending on the study. Important Note: All compounds for testing in this assay should be done at the final concentration of 1% DMSO.
as §3
After drug treatment, cytotoxicity is measured by Alamar Blue reduction. 5 μL of Alamar Blue is added to the 384 microplates using the Flexdrop.
as §4, §5
For the NSCLC project, the cell based assay was screened against a small molecule library of approximately 200,000 compounds. The compound library is stored in our automated robotic freezer (Biophile) at −20° C. in 100% DMSO. Compound freeze and thaw cycles are kept to a minimum. Compounds for use are diluted into the appropriate concentration and plated into 384 well microplates using our custom built low volume 384-well head tool (TPS 384, Apricot Designs Inc., CA, USA). This assay was performed on a fully automated linear track robotic platform (CRS F3 Robot System, Thermo Electron Corp., Ontario, Canada) utilizing several integrated peripherals for plate handling, liquid dispensing, and readout detection. First, non-small cell lung cancer cell lines are dispensed into 384 well microplates (Corning #3712 Tissue Culture Treated Plate, Corning, N.Y., USA) with 5 μL of test compounds at 100 uM in 10% DMSO for screening studies or […] in 10% DMSO to 50 nM in 10% DMSO for dose response studies. The microplates are then placed at 37° C. for 48 hours to complete treatment of cells with compounds. Next, 5 ul of alamar blue was added using a liquid dispenser (Flexprop Precision Dispenser, Perkin Elmer, Mass., USA) and incubated for 48 hours at 37° C. The alamar blue prompt fluorescence was measured on Victor V (Victor^3 V, Perkin Elmer, Mass., USA) and output data files were loaded into ORIS (Oncology Research Informatics System, MSKCC, NY, USA), a screening data acquisition and analysis platform.
as §6

[5] = in vitro; details: human
Method: NHBE (normal human bronchiolar epithelial cells) are primary cells obtained from donor lungs and commercially available from Cambrex. The HPL1D (human peripheral lung epithelial) cell line has been immortalized with the SV40 large T-antigen. WI-38: human lung fibroblast cell line. HPLID, NHBE and WI-38 cells will serve as controls in the chemical screens. WT: wildtype; WT*: over-expressed wildtype.
Compounds were tested in dose response studies from […] to 5 nM against several non small cell lung cancer lines: H358, H827, H1118, H1650, H1734, H1975, H2030, and H3255, and were also studied in a 72 hour cytotoxicity assay against the NHBE and WI-38 cell lines.

[6] = tested on: H2444; assay: Dose response study (Alamar Blue), H2444; type: cell-based; details: Homo sapiens, read-out: IC50 H2444
Method: Dose response studies against 34 compounds from the pyridazinone and phenylfuran-carboxamide class were conducted. […] In addition, Tarceva was included in these dose response studies.
as §6

[7] = Homo sapiens, NCI-H1975, 48 h, H1975, 12 point doubling dilution 10 uM to 5 nM, 48 h treatment, alamar blue additional 48 h, read-out: IC50 H1975
[8] = Homo sapiens, NCI-H1975, dose response 10 M to 5 nM, IC50, read-out: Dose Response (uM) H1975
[9] = Homo sapiens, NCI-H2030, 48 h, H2030, 12 point doubling dilution 10 uM to 5 nM, 48 h treatment, alamar blue additional 48 h, read-out: IC50 H2030
[10] = Homo sapiens, NCI-H2030, dose response 10 M to 5 nM, IC50, read-out: Dose Response (uM) H2030
[11] = NCI-H358, H358, 12 point doubling dilution 10 uM to 5 nM, 48 h treatment, alamar blue additional 48 h, read-out: IC50 H358
[12] = NCI-H358, read-out: Dose Response (uM) H358
[13] = Homo sapiens; H1118; 12 point doubling dilution 10 uM to 5 nM; 48 h treatment, alamar blue additional 48 h; read-out: IC50 H1118
[14] = Homo sapiens; read-out: Dose Response (uM) H1118
[15] = NCI-H2444, H2444, 12 point doubling dilution 10 uM to 5 nM, 48 h treatment, alamar blue additional 48 h
[16] = Homo sapiens, read-out: percentage inhibition H1975
[17] = Homo sapiens, read-out: percentage inhibition H2030
[18] = NCI-H358, 48 h, H358, 12 point doubling dilution 10 uM to 5 nM, 48 h treatment, alamar blue additional 48 h, read-out: IC50 H358
[19] = Homo sapiens, 48 h, read-out: IC50 H1118
[20] = Homo sapiens, NCI-H1975, phenylfuran-2-carboxamide SAR summary, read-out: IC50(uM) 1975
[21] = Homo sapiens, H1975, read-out: PRIMARY HTS [%] H1975 (percentage inhibition)
[22] = Homo sapiens, NCI-H2030, phenylfuran-2-carboxamide SAR summary, read-out: IC50(uM) 2030
[23] = Homo sapiens, H2030, read-out: PRIMARY HTS [%] H2030 (percentage inhibition)

| Compound | IC50 [1, 7] [µM] | IC50 [1, 8] [µM] | IC50 [2, 9] [µM] | IC50 [2, 10] [µM] | IC50 [3, 11] [µM] | IC50 [3, 12] [µM] | IC50 [4, 13] [µM] | IC50 at 72 h ([5]; CytoTox (uM) NHBE) [µM] | IC50 at 72 h ([5]; CytoTox (uM) WI-38) [µM] | IC50 [6, 15] [nM] | IC50 [3, 18] [µM] | IC50 [4, 19] [µM] | IC50 ([6]; NCI-H2444, 48 h) [nM] | IC50 [1, 20] [µM] | inhibition at 10 µM [1, 21] [%] | CONFIRMATION [%] 1975 [1] | IC50 [2, 22] [µM] | inhibition at 10 µM [2, 23] [%] | CONFIRMATION [%] 2030 [2] [%] | also measured |
| --- | --- | --- | --- | --- | --- | --- | --- | --- | --- | --- | --- | --- | --- | --- | --- | --- | --- | --- | --- | --- |
| Cc1cc(C)cc(-n2ncc(Cl)c(Cl)c2=O)c1 [compound 257020] | 0.58 | 0.27 | 0.57 | 0.56 | 0.62 | 0.22 | 0.58 | 3.18 | 6.78 | 400 | – | – | – | – | – | – | – | – | – | IC50 [4, 14]: 0.34 µM |
| O=c1c(Cl)c(Cl)cnn1-c1ccc(C(F)(F)F)cc1 [compound 267060] | 1.27 | 0.69 | 1.11 | 1.09 | 1.39 | 0.29 | 1.66 | 3.44 | > 10 | 1260 | – | – | – | – | – | – | – | – | – | – |
| CCc1cccc(-n2ncc(Cl)c(Cl)c2=O)c1 [compound 267062] | 0.47 | 0.46 | 0.54 | 0.72 | 0.66 | 0.24 | 0.67 | 1.85 | 6.44 | 430 | – | – | – | – | – | – | – | – | – | – |
| O=c1c(Cl)c(Cl)cnn1-c1cccc(C(F)(F)F)c1 [compound 176729] | 0.31 | 0.16 | 0.32 | 0.34 | 0.32 | 0.12 | 0.31 | 2.76 | 3.42 | 210 | – | – | – | – | – | – | – | – | – | inhibition at 10 µM [1, 16]: 102%; inhibition at 10 µM [2, 17]: -3%; IC50 [4, 14]: 0.2 µM |
| Cc1cccc(-n2ncc(Cl)c(Cl)c2=O)c1 [compound 104122, 4,5-dichloro-2-m-tolyl-2H-pyridazin-3-one] | 0.29 | – | 0.29 | – | – | – | – | – | – | – | 0.41 | 0.34 | 240 | – | – | – | – | – | – | inhibition at 10 µM [1, 16]: 104%; IC50 ([1]; dose response 10 M to 5 nM, IC50, read-out: Dose Response (uM) H1975): 0.14 µM; inhibition at 10 µM [2, 17]: 101%; IC50 ([4]; Homo sapiens, read-out: Dose Response (uM) H1118): 0.11 µM |
| CCCCc1cccc(-n2ncc(Cl)c(Cl)c2=O)c1 [compound 267063] | 6.57 | 1.93 | 6.43 | 2.75 | 6.66 | 0.76 | 6.41 | 5.34 | > 10 | – | – | – | – | – | – | – | – | – | – | – |
| Cc1cccc(NC(=O)c2ccc([N+](=O)[O-])o2)c1 [compound 71762] | 4.23 | – | 0.99 | – | 1.27 | – | 0.38 | – | – | 3800 | – | – | – | 1.24 | 74 | 59% and 76% | 1.43 | 101 | 103 | IC50 ([1]; phenylfuran-2-carboxamide SAR summary, read-out: IC50(uM) 1975): 1.23 µM; IC50 ([2]; phenylfuran-2-carboxamide SAR summary, read-out: IC50(uM) 2030): 1.46 µM |
| Cc1ccc(NC(=O)c2ccc([N+](=O)[O-])o2)cc1 [compound 98697] | 4.57 | – | 1.18 | – | – | – | – | – | – | – | 1.2 | 0.56 | 4790 | 1.09 | 70 | 70% | 1.06 | 62 | 101 | – |
| O=C(Nc1ccc(F)c(Cl)c1)c1ccc([N+](=O)[O-])o1 [compound 87200] | > 10 | – | 8.51 | – | 7.17 | – | 4.33 | – | – | > 10000 | – | – | – | 0.44 | 67 | 95% | 1.01 | 23 | 107 | – |
| O=C(Nc1ccc(Cl)cc1)c1ccc([N+](=O)[O-])o1 [compound 98698, 5-nitro-furan-2-carboxylic acid (4-chloro-phenyl)-amide] | 2.63 | – | 0.91 | – | – | – | – | – | – | – | 0.81 | 0.53 | 2430 | 0.63 | 74 | 57% | 1.12 | 17 | 98 | – |
